Source: US10449223B2, “Use of dehydroeburicoic acid from Antrodia camphorata in the treatment or prevention of diabetes and hyperlipidemia” (priority 2016, dated 2019)

Assays:
[1] = system: Akt; assay: phospho-Akt (Ser473)/total Akt in C2C12 myotube cells (Western blot); type: cell-based; conditions: 100 nM insulin, 25 min
Procedure: (§1) C2C12 skeletal myoblasts (ATCC, CRL-1772) were maintained in growth media consisting of Dulbecco's modified Eagle's medium (DMEM) (Gibco BRL) supplemented with 10% fetal bovine serum (FBS) (Hyclone) and 100 U/mL penicillin/100 μg/mL streptomycin (Gibco BRL) and split 1:4 using 0.05% trypsin when 80% confluent. Myoblasts were diluted and placed in a 9 cm dish. Cells were cultured to achieve 80-90% confluency, and growth medium was changed as 2% FBS/DMEM every 24 h for 5-7 days.
(§2) Determination of GLUT4 and phospho-Akt (Ser^473)/Total Akt Proteins in Vitro: Differentiated C2C12 cells were serum starved in DMEM/BSA (2 h at 37° C.) prior to incubation either with test compounds (TT at 1, 5, 10, and 25 μg/mL) or with vehicle (DMSO containing saline, final concentration of DMSO=0.2%) for 30 min or with 100 nM insulin for 25 min.
(§3) Following treatment, cells were washed three times with ice-cold PBS and separated into two portions. A portion of the cells was subsequently lysed in RIPA buffer (50 mM Tris-HCl, pH 8, 150 mM NaCl, 1% NP-40, 0.5% sodium deoxycholate, 0.1% SDS) supplemented with complete protease inhibitor cocktail (Roche) and phosphatase inhibitors and then centrifuged at 20000 g for […].
Supernatant protein was collected and stored at −20° C. Another portion of cells was homogenized with buffer (250 mmol/L sucrose, 50 mmol/L Tris, and 0.2 mmol/L edetic acid, pH 7.4) at 4° C., as previously described. The homogenates were centrifuged at 9000 g for 10 min (4° C.). The pellet was suspended with 0.5 mL of homogenization buffer and then centrifuged, repeated three times. The three supernatants were collected, mixed, and centrifuged at 190000 g for 60 min (4° C.). […]
(§4) Protein concentration was determined via BCA assay (Pierce). Equal amounts of protein were then diluted four times in SDS sample buffer and subjected to SDS-PAGE and were detected by Western blotting with antibodies specific for Akt, phosph-Akt Ser^473, and GLUT4. The density blotting was analyzed using Alpha Easy FCsoftware (Alpha Innotech Corp., Randburg, South Africa).

[2] = system: GLUT4; assay: GLUT4 protein expression in C2C12 myotube cells (Western blot); type: cell-based; conditions: 100 nM insulin, 25 min
Procedure: as §1, §2, §3
Supernatant protein was collected and stored at −20° C. Another portion of cells was homogenized with buffer (250 mmol/L sucrose, 50 mmol/L Tris, and 0.2 mmol/L edetic acid, pH 7.4) at 4° C., as previously described. The homogenates were centrifuged at 9000 g for 10 min (4° C.). The pellet was suspended with 0.5 mL of homogenization buffer and then centrifuged, repeated three times. The three supernatants were collected, mixed, and centrifuged at 190000 g for 60 min (4° C.). The pellet was resuspended with 0.2 mL of homogenization buffer, stored at −20° C., and performed within membrane.
as §4

[3] = system: DGAT2; assay: Semiquantitative RT-PCR, liver tissue: DGAT2 mRNA; type: in vivo, C57BL/6J mice; conditions: STZ-induced diabetic mice; Metf 300 mg/kg/day oral, 28 days; relative to CON group (so in the source)
Procedure: (§5) Total RNA from liver tissue was isolated with a Trizol Reagent (Molecular Research Center, Inc., Cincinnati, Ohio) according to the manufacturer's directions. The integrity of the extracted total RNA was examined by 2% agarose gel electrophoresis, and the RNA concentration was determined by the ultraviolet (UV) light absorbency at 260 nm and 280 nm (Spectrophotometer U-2800A, Hitachi). Total RNA (1 μg) was reverse transcribed to cDNA in a reaction mixture containing buffer, and 5 μL Moloney murine leukemia virus reverse transcriptase (Epicentre, Madison, Wis., USA). The polymerase chain reaction (PCR) was performed in a final 25 μL containing 1 U Blend Taq-Plus (TOYOBO, Japan), 1 μL of the RT first-strand cDNA product, 10 μM of each forward (F) and reverse (R) primer, 75 mM Tris-HCl (pH 8.3) containing 1 mg/L Tween 20, 2.5 mM dNTP, and 2 mM MgCl2. The products were run on 2% agarose gels and stained with ethidium bromide.

[4] = system: STZ-induced diabetic mice; assay: Tissue weight, body weight and food intake in STZ-induced diabetic mice; type: in vivo, C57BL/6J mice; conditions: Metf 300 mg/kg/day oral, 28 days
[5] = system: PPARα; assay: Western blotting: PPARα in liver of mice; conditions: STZ-induced diabetic mice; Metf 300 mg/kg/day oral, 28 days
Procedure: (§6) The study protocol was performed as previously described.^28 Diabetes was induced by intraperitoneal injection of streptozotocin (Sigma Chemical, St. Louis, Mo., USA) for 5 consecutive days. The dosage of STZ was 55 mg/kg (dissolved in 0.05 M cold sodium citrate buffer, pH 4.5). The normal control mice received only citrate buffer of the same volume.
(§7) During the experiment, all mice were fasted overnight, and blood was collected from the retro-orbital sinus. After dosing for 4 weeks, food was removed from the mice at night, and on the next day, the mice after 12 h of fasting were sacrificed. All of the individual tissues were collected and weighed, and parts of tissues were instantly frozen at −80° C. for later target gene analysis.
(§8) PPARα, PPARγ, and FAS proteins were performed by the liver and white adipose tissue of mice. Skeletal muscle from mice was subjected to GLUT4 expression level analysis, and the total membrane fractions were collected with buffer and determined using a described procedure. The protein contents of GLUT4, phospho-AMPK, and total AMPK were detected by Western blotting and determined as described.

[6] = system: PEPCK; assay: Semiquantitative RT-PCR, liver tissue: PEPCK mRNA; type: in vivo, C57BL/6J mice; conditions: STZ-induced diabetic mice; Metf 300 mg/kg/day oral, 28 days; relative to CON group (so in the source)
Procedure: as §5

[7] = system: FAS; assay: Western blotting: FAS in liver and adipose tissue of mice; conditions: STZ-induced diabetic mice; Metf 300 mg/kg/day oral, 28 days
Procedure: as §6, §7, §8

[8] = system: PPARα; assay: Semiquantitative RT-PCR, liver tissue: PPARα mRNA; type: in vivo, C57BL/6J mice; conditions: STZ-induced diabetic mice; Metf 300 mg/kg/day oral, 28 days
Procedure: as §5

[9] = system: AMPK; assay: Western blotting: phospho-AMPK (Thr172)/total AMPK in skeletal muscle and liver of mice; conditions: STZ-induced diabetic mice; Metf 300 mg/kg/day oral, 28 days
Procedure: as §6, §7, §8

[10] = system: GLUT4; assay: Western blotting: membrane GLUT4 in skeletal muscle of mice; conditions: STZ-induced diabetic mice; Metf 300 mg/kg/day oral, 28 days
Procedure: as §6, §7, §8

[11] = system: SREBP1c; assay: Semiquantitative RT-PCR, liver tissue: SREBP1c mRNA; type: in vivo, C57BL/6J mice; conditions: STZ-induced diabetic mice; Metf 300 mg/kg/day oral, 28 days; relative to CON group (so in the source)
Procedure: as §5

[12] = system: G6 Pase; assay: Semiquantitative RT-PCR, liver tissue: G6 Pase mRNA; type: in vivo, C57BL/6J mice; conditions: STZ-induced diabetic mice; Metf 300 mg/kg/day oral, 28 days; relative to CON group (so in the source)
Procedure: as §5

[13] = system: PPARγ; assay: Western blotting: PPARγ in liver and adipose tissue of mice; conditions: STZ-induced diabetic mice; Metf 300 mg/kg/day oral, 28 days
Procedure: as §6, §7, §8

[14] = system: STZ-induced diabetic mice; assay: Histology of epididymal WAT and liver tissue in STZ-induced diabetic mice; type: in vivo, C57BL/6J mice; conditions: Metf 300 mg/kg/day oral, 28 days
Description: Parts of EWAT and liver tissue specimens were investigated as previously described.^31,32 Microscopic images were taken using a microscope (Olympus BX51, BX51, Olympus, Tokyo, Japan).

Compound	levels of phospho-Akt (Ser473)/total Akt proteins vs CON group [1]	protein expressions of GLUT4 vs CON group [2]	mRNA levels of DGAT2 in liver [3]	Tissue weight: EWAT [4] [wt %]	Tissue weight: RWAT [4] [wt %]	Tissue weight: Visceral fat [4] [wt %]	expression levels of PPARα in the liver [5]	mRNA levels of PEPCK in liver [6]	expression levels of FAS in adipose tissue [7]	expression levels of FAS in the liver [7]	mRNA level of PPARα in liver [8]	muscular expression levels of phospho-AMPK/total AMPK compared with the STZ group (second sentence) [9]	membrane expression levels of GLUT4 in skeletal muscle vs STZ group [10]	mRNA levels of SREBP1c in liver [11]	mRNA levels of G6 Pase in liver [12]	expression levels of PPARγ in adipose tissue [13]	expression levels of PPARγ in the liver [13]	average area of adipocytes in epididymal WAT [14] [μm^2]	ballooning of hepatocyte (liver histology) [14]
insulin [reference compound]	higher	higher																	
CN(C)C(=N)N=C(N)N [Metf, metformin, reference compound]			decreased	0.956 ± 0.047	0.176 ± 0.023	1.132 ± 0.054	increased	decreased	decreased	decreased	increased	increased	greater	decreased	decreased	decreased	decreased	5308.9±204.7	no ballooning phenomenon
